{
  "source": "patent US10689308B2",
  "about": "“Solvent for thiophosphoric triamide or dicyandiamide solutions, and related methods” (RHODIA OPERATIONS, priority 2014, dated 2020)",
  "origin": "cited, not measured here",
  "settings": "dicyandiamide in a solid form; background statement",
  "data": [
    {"compound": "N#CNC(=N)N", "note": "[Dicyandiamide]", "values": [
      {"measurement": "solubility in water", "value": "about 41 grams per liter"}
    ]}
  ]
}
